Experimental data: paper PMC6443832, “Designing and Characterization of a Novel Delivery System for Improved Cellular Uptake by Brain Using Dendronised Apo-E-Derived Peptide” (Frontiers in Bioengineering and Biotechnology, 2019)

Experiments:
[1] = tested on: bEnd.3 cells; assay: Cellular uptake by laser scanning confocal microscopy (LSCM); conditions: FITC-labeled; confluent bEnd.3 cells; 1 h treatment; formalin-fixed; LSCM 488 laser; qualitative, versus untreated control cells
Experimental: The bEnd.3 cells were treated at confluence with FITC-labeled products dissolved in DMEM and incubated for 1 h (the appropriate incubation time for dendrons with this type of cell line). The cells were then fixed with 3.7% (v/v) formalin, and analyzed by LSCM (Leica TCS SP5, UK), using a 488-visible laser source.

[2] = tested on: bEnd.3 cells; assay: LDH release cytotoxicity assay; conditions: confluent bEnd.3 cells; concentrations up to 400 μM; 24 and 48 h; absorbance 492 nm; relative to complete lysis control (100% lysis); mean of n = 6
Experimental: The bEnd.3 cells were cultured, according to ATCC-product sheet instruction, in DMEM high glucose medium with L-pyruvate, containing 10 % (v/v) fetal bovine serum and 1% (v/v) of 500 U/ml Penicillin/Streptomycin (Gibco, Germany). Cells were seeded at a density of 5 × 10^4 cells per cm^2 in 24-well plates then incubated at 37°C and 5% CO2 and the culture media was replaced every 3 days.
Experiments were performed when cells reached confluence. A range of concentrations (25, 50, 100, 150, 200, 300, and 400 μM) of each AMT-competent G0-, G1-dendron, and RMT-competent AEP-dendron were used in each experiment.
Lactate dehydrogenase (LDH) was measured using Promega CytoTox96® non-radioactive cytotoxicity assay kit (UK) after 24 and 48 h incubation. Absorbance was read spectrophotometrically at 492 nm and converted to a percentage of the total LDH released from the positive control (cells subjected to complete lysis) for 6 replicates.

[3] = tested on: bEnd.3 cells; assay: Cellular uptake by flow cytometry; conditions: FITC-labeled carrier in DMEM; confluent bEnd.3 cells; 1 h incubation; flow cytometry FL1-H channel; in comparison to negative control (untreated cells)
Experimental: The bEnd.3 cells were cultured and treated at confluence with 100 μL FITC-labeled products dissolved in DMEM for 1 h. The cells were washed with phosphate buffer solution twice and trypsinised and then harvested to be analyzed using BD C6 sampler flow cytometer (BD Accuri C6, Bioscience, UK). Samples of cells without treatment were also included as a control, and the analysis was carried out through the FL1-H channel for FITC detection.

Row | Molecule | cellular uptake (green fluorescence inside the cells) [1] | cell membrane lysis (LDH release) as % of positive control [2] | cellular uptake [3]
1 | O=C1OC2(c3ccc(O)cc3Oc3cc(O)ccc32)c2ccc(N=C=S)cc21 [FITC, fluorescein-5-isothiocyanate, reference compound] | negative results |  | 
2 | NCCCC[C@H](N)C(=O)N[C@@H](Cc1ccccc1)C(N)=O [G0-dendron] | successful cellular uptake | < 10% | 38.7%
3 | H-KLRKLRKRLLR-NH2 (C-terminus assumed) [AEP-dendron] |  | < 10% | 90.7%
